Assay results as given in ChEMBL document CHEMBL1156829 (Proc Natl Acad Sci U S A, 2008).

How the values were obtained:
[1] = system: Plasmodium falciparum; assay: NOVARTIS: Inhibition of Plasmodium falciparum 3D7 (drug-susceptible) proliferation in erythrocyte-based infection assay; assay type: functional, organism-based; conditions: Plasmodium falciparum, 3D7
[2] = system: Plasmodium falciparum; assay: NOVARTIS: Inhibition of Plasmodium falciparum W2 (drug-resistant) proliferation in erythrocyte-based infection assay; assay type: functional, organism-based; conditions: Plasmodium falciparum, W2; read-out: EC50
[3] = NOVARTIS: Cytotoxicity against human hepatocellular carcinoma cell line (Huh7); assay type: toxicity, cell-based, Huh-7; conditions: Huh7 cells (hepatocellular carcinoma cell line)

Compound | EC50 [1] | EC50 [2] | CC50 [3]
Cc1cc(C)cc(-n2c(C)cc(/C=C3\SC(=Nc4ccc(Br)cc4)NC3=O)c2C)c1 | 2580 nM | 4450 nM | > 100000 nM
COc1ccc(C(OCC(=O)N2CCN(Cc3ccccc3)CC2)c2ccccc2)cn1 (centres undefined) | 604 nM | 434 nM | > 10000 nM
CCSC1=CC(=O)c2ccccc2C1=O | 551 nM | 230 nM | 5170 nM
O=C(O)CCNc1ccccc1[N+](=O)[O-] | > 8540 nM | > 4310 nM | > 100000 nM
CCNC(=O)/C=C/c1ccc(C(C)(C)C)cc1 | > 1100 nM | 441 nM | > 10000 nM
CCc1ccc(C(=O)N(CC(=O)Nc2cc(C(C)(C)C)nn2-c2ccc(Cl)c(Cl)c2)C(C)C)cc1 | 1730 nM | 3860 nM | 87800 nM
CCOC(=O)c1cnc2ccc(Cl)cc2c1Nc1ccc(OC)c(OC)c1 | 2670 nM | 4430 nM | > 100000 nM
N=c1n(CCN2CCCCC2)c2ccccc2n1CC(O)COc1ccc(Cl)cc1 (centres undefined) | 521 nM | 279 nM | 6270 nM
COc1ccccc1N1C(=N)S/C(=C\c2ccc(OCc3ccccc3F)cc2)C1=O | 741 nM | 434 nM | > 10000 nM
FC(F)(F)c1cccc(Nc2nnnc3ccccc23)c1 | 756 nM | 433 nM | > 10000 nM
COc1ccc(S(=O)(=O)N=C2C=C(Nc3ccc(O)cc3)C(=O)c3ccccc32)cc1 | 185 nM | 109 nM | 2450 nM
CC1(C)C=C(C23C=CC(C2)C2C(=C4CC(C)(C)NC(C)(C)C4)C=CC23)CC(C)(C)N1 (centres undefined) | 2230 nM | 1970 nM | 44700 nM
CC1(C)CN=C(NCc2ccccc2Cl)S1 | 7450 nM | 1480 nM | 34200 nM
CC(=O)N/C(=C\c1ccc(OC(F)F)cc1)C(=O)O | > 1170 nM | 432 nM | > 10000 nM
N#CC(=CC=Cc1ccc([N+](=O)[O-])o1)c1nc2ccccc2[nH]1 | 381 nM | 387 nM | 8690 nM
COCCNC(=O)[C@@H]1C[C@@H](NCCC2=C(C)CCCC2(C)C)CN1C(C)C | > 12500 nM | 4300 nM | > 100000 nM
CN(CCCNc1ccnc2cc(Cl)ccc12)S(=O)(=O)c1ccc(Br)cc1 | 186 nM | 295 nM | 6880 nM
CC(C)(C)c1ccc(C(=O)Nc2ccc(NC(=O)c3ccc(-c4cccc([N+](=O)[O-])c4)o3)cc2)cc1 | > 1460 nM | > 429 nM | > 10000 nM
COc1ccc(CCNC(=O)CC(=O)NN=Cc2ccc(Br)cc2)cc1OC | > 1250 nM | > 429 nM | > 10000 nM
CN(Cc1ccccc1)CC(O)COc1ccc(CNCCCN2CCCC2)cc1 (centres undefined) | 2380 nM | 2560 nM | 59800 nM
Cn1cnc2cc(OC3CCN(Cc4ccco4)CC3)ccc21 | 216 nM | 192 nM | > 4340 nM
CCCCN(CC)S(=O)(=O)c1cc(Br)cc2c1N(C(C)=O)CC2 | 1560 nM | 441 nM | > 10000 nM
CC(=O)Nc1ccc2nc(C)sc2c1 | > 1250 nM | > 445 nM | > 10000 nM
Cc1ccccc1C(=O)N1CCC(n2nccc2NC(=O)CCOc2ccccc2)CC1 | > 12500 nM | 4450 nM | > 100000 nM
CC(C)N1CCC(N2CCN(Cc3ccc4c(c3)Cc3ccccc3-4)CC2CCO)CC1 (centres undefined) | 1540 nM | 905 nM | 20500 nM
O=[N+]([O-])c1ccc2nc(Nc3ccccc3)c(Nc3ccccc3)nc2c1 | 941 nM | 955 nM | 21700 nM
CC(C)CNc1nc(NCCCn2ccnc2)ncc1C(=O)NCc1ccccc1 | 257 nM | 443 nM | > 10000 nM

Compound | EC50 [1] | EC50 [2] | CC50 [3]
CCOC(=O)C1=C(C)N(c2ccc(OCC)cc2)C(=O)/C1=C\c1ccc(C(C)C)cc1 | > 1280 nM | 439 nM | > 10000 nM
CN(C)c1ccc(C2Nc3ccccc3NC3=C2C(=O)CC(C)(C)C3)cc1 (centres undefined) | > 12500 nM | 4390 nM | > 100000 nM
O=C(C1CCN(C(c2ccc(F)cc2)c2ccc(F)cc2)CC1)N1CCCC1 | > 586 nM | 447 nM | > 10000 nM
c1csc(CN2CCc3nc(N4CCCCC4)sc3C2)c1 | 1260 nM | 446 nM | > 10000 nM
O=C(C=Cc1ccccc1)c1c(-c2ccccc2)c2cc([N+](=O)[O-])ccc2[nH]c1=O | > 9370 nM | > 4460 nM | > 100000 nM
CCCN1CCC(N2CCCC(c3[nH]ncc3-c3cccc(C(F)(F)F)c3)C2)CC1 (centres undefined) | 757 nM | 448 nM | > 10000 nM
CCc1ccc(CN2CCC(O)(c3ccc4oc(C(=O)Nc5ccc6c(c5)OCO6)cc4c3)CC2)cc1 | 359 nM | 460 nM | 10300 nM
O=C(Cn1ccc(=NCc2ccccc2)cc1)c1cccc([N+](=O)[O-])c1 | 397 nM | 439 nM | > 10000 nM
CC(C)N(CC(=O)Nc1cc(C(C)(C)C)nn1-c1ccc(Cl)cc1)C(=O)c1ccc(C(C)(C)C)cc1 | 9960 nM | 4480 nM | > 100000 nM
CCCCc1nc(CN2CCC3(CC2)C(=O)N(CCc2ccccc2)C(=O)N3C)c[nH]1 | > 12000 nM | 4380 nM | > 100000 nM
CCCN1CCN(CCCNC(=O)c2ccc3c(c2)sc2nc(-c4ccc(OC)cc4)cn23)CC1 | 2440 nM | 4380 nM | > 100000 nM
CN(C)c1ccc(-c2cc(-c3ccccc3)[s+]c(-c3ccccc3)c2)cc1 | 318 nM | 73.7 nM | 1690 nM
CCOc1cccc2c1N(C(=O)c1cccc([N+](=O)[O-])c1)C(C)(C)C(=S)C2=C1SC(C(=O)OC)=C(C(=O)OC)S1 | > 1250 nM | 444 nM | > 10000 nM
CC(c1nc2ccccc2c(=O)n1-c1ccc(Br)cc1)N1CCN(S(=O)(=O)c2ccc3ccccc3c2)C(C)C1 (centres undefined) | > 1250 nM | 434 nM | > 10000 nM
OCCNc1nc(Nc2ccc(Cl)cc2)nc2ccccc12 | 321 nM | 508 nM | 11600 nM
CN(C)CCNc1ncnc2c1[nH]c1ccc(Cl)cc12 | 632 nM | 886 nM | 20400 nM
CC(C)CC(=O)NCCCCNc1ccnc2cc(Cl)ccc12 | 620 nM | 430 nM | > 10000 nM
Cc1ccc(Cl)cc1Nc1nc2ccccc2n2c(C)nnc12 | > 12500 nM | 4470 nM | > 100000 nM
CCN(CC)CCCC(C)Nc1ccnc2cc3ccccc3cc12 (centres undefined) | 90.1 nM | 933 nM | 21300 nM
COc1ccc(-c2cc(=O)c3c(O)cc(OC4OC(COC5OC(C)C(O)C(O)C5O)C(O)C(O)C4O)cc3o2)cc1 (centres undefined) | > 12500 nM | 4420 nM | > 100000 nM
O=[N+]([O-])c1cccc(C=NNc2nc(NN=Cc3cccc([N+](=O)[O-])c3)nc(Nc3cccc4ccccc34)n2)c1 | 509 nM | 442 nM | > 10000 nM
CC(CC(=O)Oc1ccccc1-c1nc2ccccn2c1NC(C)(C)CC(C)(C)C)CC(C)(C)C (centres undefined) | 242 nM | 34.2 nM | 796 nM
CCc1ccc(N(C(=O)CCN2CCc3ccccc32)C(C(=O)NCc2ccccc2)c2ccc(OC)c(OC)c2)cc1 (centres undefined) | 5080 nM | 4450 nM | > 100000 nM
CCCCN1Cc2ccc(C(=O)NCCN3CCOCC3)cc2N=C1c1ccc(OC)cc1 | > 10000 nM | 4410 nM | > 100000 nM
Cc1nc2c(C#N)c(C)nn2c(C)c1Cc1cccc(F)c1 | 437 nM | 444 nM | > 10000 nM
CCOC(=O)c1sc(NC(=O)C(C)Sc2nnc(CNC(=O)c3ccc(OC)cc3)n2-c2ccccc2OC)c(C(=O)OCC)c1C (centres undefined) | > 1250 nM | 439 nM | > 10000 nM
